ChEMBL document CHEMBL1201862, “PubChem BioAssay data set” (2004)
Blank lines part the entries; values can stand above or below the molecule they belong to. Activity calls are given as the source filed them.

Columns and labels:
[1] = target: T1, Corticotropin-releasing factor receptor 2/Corticotropin-releasing factor-binding protein (Homo sapiens, UniProt P24387+Q13324); test: activators of CRF receptor 2 with binding protein – uHTS hits, confirmation (AID 602473); type: functional; conditions: read-out: EC50_Mean
T1 sequence (Q13324 whole entry): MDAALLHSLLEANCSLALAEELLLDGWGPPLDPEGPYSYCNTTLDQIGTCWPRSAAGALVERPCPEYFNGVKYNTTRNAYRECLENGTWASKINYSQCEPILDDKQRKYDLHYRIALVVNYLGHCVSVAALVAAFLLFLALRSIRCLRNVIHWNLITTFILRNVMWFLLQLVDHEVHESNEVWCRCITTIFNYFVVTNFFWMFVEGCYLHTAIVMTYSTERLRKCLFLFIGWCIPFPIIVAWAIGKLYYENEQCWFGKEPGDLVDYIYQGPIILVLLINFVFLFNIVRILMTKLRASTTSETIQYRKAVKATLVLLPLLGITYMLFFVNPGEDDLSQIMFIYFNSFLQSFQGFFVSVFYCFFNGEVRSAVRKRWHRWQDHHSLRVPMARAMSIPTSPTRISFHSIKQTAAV
T1 sequence (P24387 whole entry): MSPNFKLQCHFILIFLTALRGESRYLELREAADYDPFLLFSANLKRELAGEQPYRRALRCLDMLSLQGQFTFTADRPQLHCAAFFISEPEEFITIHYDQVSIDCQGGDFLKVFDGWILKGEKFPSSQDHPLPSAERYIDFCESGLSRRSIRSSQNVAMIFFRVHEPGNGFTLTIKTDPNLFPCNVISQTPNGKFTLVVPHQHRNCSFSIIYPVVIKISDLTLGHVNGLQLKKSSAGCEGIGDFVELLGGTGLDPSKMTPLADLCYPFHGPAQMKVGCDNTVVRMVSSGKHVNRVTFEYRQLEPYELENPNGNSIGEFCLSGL

[2] = target: T1, Corticotropin-releasing factor receptor 2/Corticotropin-releasing factor-binding protein; test: Dose Response confirmation of uHTS hits for small molecule antagonists of the CRF-binding protein and CRF-R2 receptor complex.; type: functional; conditions: read-out: IC50_Mean
[3] = target: T2, Ubiquitin-conjugating enzyme E2 N (Homo sapiens, UniProt P61088); type: functional;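 note: Dose-response confirmation in a TR-FRET assay detecting UBC13-driven polyubiquitin chain formation, inhibition measured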
T2 sequence (P61088 whole entry): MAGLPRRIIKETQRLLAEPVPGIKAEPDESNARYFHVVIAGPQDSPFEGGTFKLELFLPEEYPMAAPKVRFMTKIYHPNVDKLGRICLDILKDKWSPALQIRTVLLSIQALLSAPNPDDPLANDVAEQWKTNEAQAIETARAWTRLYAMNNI

[4] = target: T3, Calpain-2 catalytic subunit (Sus scrofa, UniProt P43367); test: m-calpain protease blockers, concentration series – biochemical, fluorogenic peptide substrate, dose response (AID 1420); type: functional
T3 sequence (P43367 whole entry): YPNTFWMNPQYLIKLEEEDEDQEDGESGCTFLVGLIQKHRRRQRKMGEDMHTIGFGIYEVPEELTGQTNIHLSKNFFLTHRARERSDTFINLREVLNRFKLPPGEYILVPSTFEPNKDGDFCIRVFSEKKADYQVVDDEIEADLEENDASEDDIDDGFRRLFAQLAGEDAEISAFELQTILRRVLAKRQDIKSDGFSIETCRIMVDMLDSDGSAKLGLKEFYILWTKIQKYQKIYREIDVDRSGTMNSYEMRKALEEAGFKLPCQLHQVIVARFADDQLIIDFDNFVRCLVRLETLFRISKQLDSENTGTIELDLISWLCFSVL

[5] = target: T4, Histone-lysine N-methyltransferase NSD2 (Homo sapiens, UniProt O96028); type: biochemical
T4 sequence (O96028 whole entry): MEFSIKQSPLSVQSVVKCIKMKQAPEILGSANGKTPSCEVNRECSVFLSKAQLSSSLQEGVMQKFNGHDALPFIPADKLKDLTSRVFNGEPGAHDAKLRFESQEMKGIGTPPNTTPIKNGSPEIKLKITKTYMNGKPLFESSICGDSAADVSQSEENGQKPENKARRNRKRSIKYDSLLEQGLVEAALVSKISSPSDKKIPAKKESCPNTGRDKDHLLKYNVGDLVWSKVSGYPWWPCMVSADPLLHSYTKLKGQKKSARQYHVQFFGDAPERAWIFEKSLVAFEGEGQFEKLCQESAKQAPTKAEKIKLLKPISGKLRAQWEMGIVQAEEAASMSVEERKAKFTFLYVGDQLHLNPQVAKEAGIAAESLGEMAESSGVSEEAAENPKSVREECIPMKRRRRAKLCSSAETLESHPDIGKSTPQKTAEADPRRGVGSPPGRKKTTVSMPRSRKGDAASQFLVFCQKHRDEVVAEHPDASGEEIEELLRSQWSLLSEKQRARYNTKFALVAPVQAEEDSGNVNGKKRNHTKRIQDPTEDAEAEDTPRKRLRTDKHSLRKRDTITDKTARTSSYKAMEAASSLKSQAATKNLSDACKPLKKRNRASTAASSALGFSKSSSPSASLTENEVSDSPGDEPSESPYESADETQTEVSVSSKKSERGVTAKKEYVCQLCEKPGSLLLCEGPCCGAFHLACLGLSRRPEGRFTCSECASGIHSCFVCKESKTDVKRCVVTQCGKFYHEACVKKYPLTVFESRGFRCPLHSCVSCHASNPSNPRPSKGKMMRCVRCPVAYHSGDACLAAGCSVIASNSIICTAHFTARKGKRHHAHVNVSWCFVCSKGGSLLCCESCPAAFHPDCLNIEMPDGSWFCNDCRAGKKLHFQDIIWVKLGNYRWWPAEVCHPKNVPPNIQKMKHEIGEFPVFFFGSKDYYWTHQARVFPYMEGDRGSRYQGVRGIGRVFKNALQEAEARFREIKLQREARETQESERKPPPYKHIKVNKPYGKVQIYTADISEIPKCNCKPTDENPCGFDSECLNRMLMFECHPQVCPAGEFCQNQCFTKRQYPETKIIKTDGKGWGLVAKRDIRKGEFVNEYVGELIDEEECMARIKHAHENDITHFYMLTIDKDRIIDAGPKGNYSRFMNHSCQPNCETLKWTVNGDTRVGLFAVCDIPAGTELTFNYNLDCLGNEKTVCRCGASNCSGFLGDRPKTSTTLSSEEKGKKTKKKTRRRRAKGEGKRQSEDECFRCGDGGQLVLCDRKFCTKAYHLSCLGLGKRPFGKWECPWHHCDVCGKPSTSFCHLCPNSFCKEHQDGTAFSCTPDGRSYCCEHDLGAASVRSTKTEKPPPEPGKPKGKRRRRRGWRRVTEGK

[6] = IGROV1 cell killing – plate reader, dry powder samples, PAX8 inhibitor project, dose response (AID 743043); type: functional, cell-based; conditions: IGROV-1
Paired box protein Pax-8 = Paired box protein Pax-8 (Homo sapiens, UniProt Q06710); test: PAX8 transcriptional activity inhibition in RMG-I – RMG-I cells, luciferase, cherry-pick, dose response (AID 687027); type: functional, cell-based;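 note: luciferase reporter driven by Pax8 target thyroperoxidase promoter measured by SteadyGlo luminescence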
Paired box protein Pax-8, sequence (Q06710 whole entry): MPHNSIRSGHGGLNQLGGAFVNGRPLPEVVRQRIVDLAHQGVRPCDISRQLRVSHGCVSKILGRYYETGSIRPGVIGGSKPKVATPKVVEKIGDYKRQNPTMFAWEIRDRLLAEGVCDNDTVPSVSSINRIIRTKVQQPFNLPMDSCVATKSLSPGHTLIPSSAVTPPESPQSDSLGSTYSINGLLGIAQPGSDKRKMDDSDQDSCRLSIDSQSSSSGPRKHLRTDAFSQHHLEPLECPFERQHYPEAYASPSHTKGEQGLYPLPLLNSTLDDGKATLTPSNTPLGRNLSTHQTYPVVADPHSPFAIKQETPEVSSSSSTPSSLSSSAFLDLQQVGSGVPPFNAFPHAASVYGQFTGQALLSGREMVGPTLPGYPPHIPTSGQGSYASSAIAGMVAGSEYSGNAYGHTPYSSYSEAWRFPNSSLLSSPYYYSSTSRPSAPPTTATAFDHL

[7] = OVCAR-3 cell viability loss – plate reader, dry powder samples, PAX8 inhibitor project, dose response (AID 743044); type: functional, cell-based
Large T antigen = Large T antigen (Simian virus 40, UniProt P03070); type: functional, Betapolyomavirus macacae;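 note: Confirmatory-stage PubChem screen for compounds that inhibit SV40 T antigen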
Large T antigen, sequence (P03070 whole entry): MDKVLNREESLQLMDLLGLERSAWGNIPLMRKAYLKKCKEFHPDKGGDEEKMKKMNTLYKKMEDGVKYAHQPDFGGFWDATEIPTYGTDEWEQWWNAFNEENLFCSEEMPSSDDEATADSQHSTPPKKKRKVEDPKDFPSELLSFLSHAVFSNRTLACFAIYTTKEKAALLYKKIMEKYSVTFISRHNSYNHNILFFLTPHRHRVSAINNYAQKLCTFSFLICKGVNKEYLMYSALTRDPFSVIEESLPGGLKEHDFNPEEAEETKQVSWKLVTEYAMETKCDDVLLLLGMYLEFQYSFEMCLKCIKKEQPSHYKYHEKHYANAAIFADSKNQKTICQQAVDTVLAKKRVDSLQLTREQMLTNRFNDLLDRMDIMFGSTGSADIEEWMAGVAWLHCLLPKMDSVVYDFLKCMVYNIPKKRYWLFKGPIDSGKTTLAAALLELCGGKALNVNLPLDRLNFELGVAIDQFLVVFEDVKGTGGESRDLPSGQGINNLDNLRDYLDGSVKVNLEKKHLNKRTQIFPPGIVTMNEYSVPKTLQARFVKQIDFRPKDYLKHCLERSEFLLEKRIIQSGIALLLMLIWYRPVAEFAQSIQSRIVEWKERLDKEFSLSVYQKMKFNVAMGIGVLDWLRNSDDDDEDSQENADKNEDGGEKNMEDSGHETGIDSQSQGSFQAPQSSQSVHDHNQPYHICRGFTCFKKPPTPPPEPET

EC50 [1]: > 53 µM (inactive)
IC50 [2]: > 47.1 µM (inactive)
SMILES: O=C(OCC(=O)N1CCN(c2ccccc2)CC1)c1ccccn1

IC50 [3]: > 20 µM (inactive)
SMILES: CCn1c(O)c(N=NC(S)=NCC2CCCO2)c2ccccc21 (centres undefined)

IC50 [3]: > 20 µM (inactive)
SMILES: CCc1ccc(N(C(=O)c2snc(C(N)=O)c2N)C(C(=O)NC2CCCC2)c2ccco2)cc1 (centres undefined)

IC50 [4]: > 50 µM (not active)
SMILES: CCOC(=O)C1CCCN(c2c(NCCCN(C)c3ccccc3)c(=O)c2=O)C1 (centres undefined)

IC50 [4]: 25.1 µM (not active)
SMILES: O=C(CCCN1C(=O)c2ccccc2C1=O)N1CCC(c2ccccc2)C1 (centres undefined)

EC50 [1]: > 53 µM (inactive)
IC50 [2]: > 47.1 µM (inactive)
SMILES: O=C(COC(=O)C1CCN(S(=O)(=O)c2ccccc2)CC1)NC(=O)c1ccc(OC(F)F)cc1

IC50 [3]: > 20 µM (inactive)
SMILES: CC(C)Cn1cc(C(=O)NC2CCN(Cc3ccccc3)CC2)c2c3ccccc3n(C)c2c1=O

IC50 [4]: < 0.4 µM (not active)
SMILES: CCCOc1ccc(OCCN2CCCC(C)C2)cc1 (centres undefined)

EC50 [1]: > 53 µM (inactive)
IC50 [2]: > 47.1 µM (inactive)
SMILES: COc1ccc(CN2CCS(=O)(=O)CC2)cc1OC

Second part, the molecule before the results:

SMILES: Cc1ccc(C2CC(c3cccs3)=NN2C(=O)c2ccco2)o1 (centres undefined)
IC50 [4]: > 50 µM (not active)

SMILES: O=C(/C=C/c1ccco1)Nc1ccccc1C(=O)O
AC50 [5]: > 20 µM (inactive)

SMILES: C[C@H](CO)N1C[C@H](C)[C@H](CN(C)CC2CCCCC2)OCCCC[C@H](C)Oc2ccc(NC(=O)Nc3ccccc3)cc2C1=O
AC50 [6]: 38.2 µM (active)
AC50 (Paired box protein Pax-8): 14.2 µM (active)
AC50 [7]: 25 µM (active)

SMILES: CCN(CC)S(=O)(=O)c1cc(NS(=O)(=O)c2ccccc2)ccc1C
IC50 [4]: > 50 µM (not active)

SMILES: C[C@H](CO)N1C[C@H](C)[C@H](CN(C)Cc2ccc(Cl)c(Cl)c2)OCCCC[C@H](C)Oc2ccc(NS(=O)(=O)c3ccc(F)cc3)cc2C1=O
AC50 (Paired box protein Pax-8): 4.85 µM (active)
AC50 [7]: 48.3 µM (active)

SMILES: CC(=O)Nc1ccc(OC(=O)C(CCS(C)(=O)=O)N2C(=O)c3ccccc3C2=O)cc1 (centres undefined)
IC50 (Large T antigen): 8.46 µM (active)

SMILES: CC1=NC(=S)NC(c2cccs2)/C1=C(\O)OCC(C)C (centres undefined)
IC50 (Large T antigen): 51.4 µM (active)

SMILES: Cc1ccc2nc(Cl)c(/C=N/Nc3ccc(C(=O)O)cc3)cc2c1
IC50 [4]: 4.02 µM (not active)

SMILES: O=C(O)c1cccc2c1C(=O)N(Cc1ccccc1)C2
EC50 [1]: > 53 µM (inactive)
IC50 [2]: > 47.1 µM (inactive)

SMILES: CC1CN(C(c2ccco2)c2sc3ncnn3c2O)CC(C)O1 (centres undefined)
EC50 [1]: > 53 µM (inactive)
IC50 [2]: > 47.1 µM (inactive)

SMILES: CSc1ncccc1C(=O)N(C)CC(=O)Nc1cccc(F)c1
EC50 [1]: > 53 µM (inactive)
IC50 [2]: > 47.1 µM (inactive)

SMILES: NC(=O)COc1ncn(-c2ccccc2)n1
EC50 [1]: > 53 µM (inactive)
IC50 [2]: > 47.1 µM (inactive)

SMILES: C=C(C)c1cccc(C(C)(C)NC(=O)NC2CN3CCC2CC3)c1 (centres undefined)
AC50 [5]: 15.6 µM (active)

SMILES: CCCC[C@@H](CNC)NC[C@H](NCCCCC1CCCCC1)C(C)C
IC50 [3]: > 20 µM (inactive)

SMILES: Cc1ccc(-c2noc(CSc3nnc(Cc4ccccc4)n3-c3cccc(C)c3)n2)cc1
IC50 [4]: 5.35 µM (not active)
